Patent publication US5278285A, “Variant of Kunitz-type inhibitor derived from the α3-chain of human type VI collagen produced by recombinant DNA technology” (Bayer Aktiengesellschaft, priority 1990, dated 1994)

Tests used:
[1] = application during open heart surgery, clinical studies; cited from earlier work
[2] = tested on: human trypsin; assay: Trypsin inhibition assay; assay type: biochemical; conditions: substrate benzoyl-L-arginine p-nitroanilide; product expressed in yeast
Experimental: The trypsin activity was determined using the method of geiger & Fritz, Methods of Enzymatic Analysis, Vol. V, 3rd ed., Bergmeyer (ed.), Verlag Chemie, Weinheim (1984), p. 121 with benzoyl-L-arginine p-nitroanilide as substrate. The liberated p-nitroaniline was measured in a spectrophotometer at 405 nm. Enzyme and inhibitor were preincubated for 15 min before addition of the substrate.

| Substance | blood loss [1] | trypsin inhibition (biological activity) [2] |
| --- | --- | --- |
| aprotinin | reduces blood loss significantly | – |
| α3(VI) inhibitor: Kunitz type proteinase inhibitor, aminoacid pos. 2873 to 2931 of the C5 domain of human type VI collagen α3 chain, expressed in yeast (pKol 100) | – | inhibits human trypsin |
